Consider one compound from patent US11192850B2, “N-aryl oxamic acids” (Purdue Research Foundation, priority 2020, dated 2021).

The experiment deals with mPTPB transfected Raw264.7 cells. The experiment in a line: Blocking mPTPB-mediated signaling, Western blotting. In kind it is cell-based, mouse. The conditions noted are these: dose-dependent.

The structures appear in SMILES notation.

On to `O=C(O)C(=O)Nc1ccc(C#Cc2ccc(C(F)(F)F)cc2Cl)cc1` [Compound 4t, 2-((4-((2-chloro-4-(trifluoromethyl)phenyl)ethynyl)phenyl)amino)-2-oxoacetic Acid], for which the Akt activity entry is “reduced”; the “IFN-γ induced phosphorylation of ERK1/2 and p38” value was “increased”.
